Each structure is given as a SMILES string.

For the assay, the target named is T1, human full-length MKNK1 (Homo sapiens, UniProt Q9BUB5, T385D).
T1 construct: GST (N); purchased Carna Biosciences 02-145; host or cells: insect cells (baculovirus expression system)
T1 sequence (Q9BUB5 1-424 isoform Q9BUB5-2 T344D): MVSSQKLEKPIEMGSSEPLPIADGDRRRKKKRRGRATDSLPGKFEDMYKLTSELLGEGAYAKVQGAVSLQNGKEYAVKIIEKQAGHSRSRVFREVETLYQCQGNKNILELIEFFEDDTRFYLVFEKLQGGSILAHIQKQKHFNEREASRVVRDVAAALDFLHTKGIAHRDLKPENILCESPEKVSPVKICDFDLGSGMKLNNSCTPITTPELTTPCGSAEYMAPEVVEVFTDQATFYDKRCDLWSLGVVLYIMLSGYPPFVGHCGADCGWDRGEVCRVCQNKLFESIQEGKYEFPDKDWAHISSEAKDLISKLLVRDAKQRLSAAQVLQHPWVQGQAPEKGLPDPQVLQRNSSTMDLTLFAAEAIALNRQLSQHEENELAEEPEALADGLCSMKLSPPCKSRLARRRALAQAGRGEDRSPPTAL
Briefly: MKNK1 kinase high ATP assay (TR-FRET). Format: biochemical. Conditions: TR-FRET, 2 mM ATP (high ATP), 15 min preincubation with enzyme, 30 min reaction at 22° C.; read-out: MKNK1 IC50. As to the method: MKNK1 Kinase High ATP Assay
MKNK1-inhibitory activity at high ATP of compounds of the present invention after their preincubation with MKNK1 was quantified employing the TR-FRET-based MKNK1 high ATP assay as described in the following paragraphs.
As substrate for the kinase reaction the biotinylated peptide biotin-Ahx-[…] (C-terminus in amide form) was used, which can be purchased e.g. from the company Biosyntan (Berlin-Buch, Germany).
For the assay 50 nL of a 100 fold concentrated solution of the test compound in DMSO was pipetted into a black low volume 384 well microtiter plate (Greiner Bio-One, Frickenhausen, Germany), 2 μL of a solution of MKNK1 in aqueous assay buffer [50 mM HEPES pH 7.5, 5 mM MgCl2, 1.0 mM dithiothreitol, 0.005% (v/v) Nonidet-P40 (Sigma)] was added and the mixture was incubated for 15 min at 22° C. to allow pre-binding of the test compounds to the enzyme before the start of the kinase reaction. Then the kinase reaction was started by the addition of 3 μL of a solution of adenosine-tri-phosphate (ATP, 3.3 mM=>final conc. in the 5 μL assay volume is 2 mM) and substrate (0.1 μM=>final conc. in the 5 μL assay volume is 0.06 μM) in assay buffer and the resulting mixture was incubated for a reaction time of 30 min at 22° C. The concentration of MKNK1 was adjusted depending of the activity of the enzyme lot and was chosen appropriate to have the assay in the linear range, typical concentrations were in the range of 0.003 μg/mL. The reaction was stopped by the addition of 5 μL of a solution of TR-FRET detection reagents (5 nM streptavidine-XL665 [Cisbio Bioassays, Codolet, France] and 1 nM anti-ribosomal protein S6 (pSer236)-antibody from Invitrogen [#44921G] and 1 nM LANCE EU-W1024 labeled ProteinG [Perkin-Elmer, product no. AD0071]) in an aqueous EDTA-solution (100 mM EDTA, 0.1% (w/v) bovine serum albumin in 50 mM HEPES pH 7.5).
The resulting mixture was incubated for 1 h at 22° C. to allow the formation of complex between the phosphorylated biotinylated peptide and the detection reagents. Subsequently the amount of phosphorylated substrate was evaluated by measurement of the resonance energy transfer from the Eu-chelate to the streptavidine-XL. Therefore, the fluorescence emissions at 620 nm and 665 nm after excitation at 350 nm were measured in a TR-FRET reader, e.g. a Rubystar (BMG Labtechnologies, Offenburg, Germany) or a Viewlux (Perkin-Elmer). The ratio of the emissions at 665 nm and at 622 nm was taken as the measure for the amount of phosphorylated substrate.
(In TR-FRET formats the signal depends on donor and acceptor labels being close together.)
For orientation: IC50 means the concentration needed to halve the response being measured. As for `CN(C)C(=O)[C@H]1CCc2c(sc3ncnc(Nc4cc(Cl)c5n(c4=O)C4(CCC4)NC5=O)c23)C1` [Example 95, (7S)-4-[(8′-Chloro-1′,5′-dioxo-1′,5′-dihydro-2′H-spiro[cyclobutane-1,3′-imidazo[1,5-a]pyridin]-6′-yl)amino]-N,N-dimethyl-5,6,7,8-tetrahydro[1]benzothieno[2,3-d]pyrimidine-7-carboxamide], the IC50 is 1900 pM.
As to `C[C@@H]1COCCN1C(=O)[C@H]1CCc2c(sc3ncnc(Nc4cc(Cl)c5n(c4=O)C4(CCC4)NC5=O)c23)C1` [Example 99, 8′-Chloro-6′-({(7S)-7-[(3R)-3-methylmorpholine-4-carbonyl]-5,6,7,8-tetrahydro[1]benzothieno[2,3-d]pyrimidin-4-yl}amino)-2′H-spiro[cyclobutane-1,3′-imidazo[1,5-a]pyridine]-1′,5′-dione], the IC50 came out at 100 pM.
On to `O=C1NC2(CSC2)n2c1c(Cl)cc(Nc1ncnc3sc4c(c13)CC[C@H](C(=O)O)C4)c2=O` [Example 101, (7S)-4-[(8-Chloro-1,5-dioxo-1,5-dihydro-2H-spiro[imidazo[1,5-a]pyridine-3,3′-thietan]-6-yl)amino]-5,6,7,8-tetrahydro[1]benzothieno[2,3-d]pyrimidine-7-carboxylic acid], for which the IC50 amounted to 1800 pM.
Consider `CN(C)[C@H]1CCN(C(=O)[C@H]2CCc3c(sc4ncnc(Nc5cc(Cl)c6n(c5=O)C5(CSC5)NC6=O)c34)C2)C1` [Example 105, 8-Chloro-6-({(7S)-7-[(3S)-3-(dimethylamino)pyrrolidine-1-carbonyl]-5,6,7,8-tetrahydro[1]benzothieno[2,3-d]pyrimidin-4-yl}amino)-2H-spiro[imidazo[1,5-a]pyridine-3,3′-thietane]-1,5-dione], for which the IC50 worked out at 100 pM.
For `Cc1cc(Nc2ncnc3sc4c(c23)CC[C@H](C(=O)N2CCN(C)[C@H](C)C2)C4)c(=O)n2c1C(=O)NC21CCC1` [Example 25, 6′-{[(7S)-7-{[(3R)-3,4-Dimethylpiperazin-1-yl]carbonyl}-5,6,7,8-tetrahydro[1]benzothieno[2,3-d]pyrimidin-4-yl]amino}-8′-methyl-2′H-spiro[cyclobutane-1,3′-imidazo[1,5-a]pyridine]-1′,5′-dione], the half-inhibitory concentration (IC50) worked out at 400 pM.
The value for `CN(C)C(=O)[C@H]1CCc2c(sc3ncnc(Nc4cc(Cl)c5n(c4=O)C4(CSC4)NC5=O)c23)C1` [Example 102, (7S)-4-[(8-Chloro-1,5-dioxo-1,5-dihydro-2H-spiro[imidazo[1,5-a]pyridine-3,3′-thietan]-6-yl)amino]-N,N-dimethyl-5,6,7,8-tetrahydro[1]benzothieno[2,3-d]pyrimidine-7-carboxamide] was 200 pM; that for `CN(C)C(=O)[C@H]1CCc2c(sc3ncnc(Nc4cc(Cl)c5n(c4=O)C4(CCCCC4)NC5=O)c23)C1` [Example 75, (7S)-4-[(8′-Chloro-1′,5′-dioxo-1′,5′-dihydro-2′H-spiro[cyclohexane-1,3′-imidazo[1,5-a]pyridin]-6′-yl)amino]-N,N-dimethyl-5,6,7,8-tetrahydro[1]benzothieno[2,3-d]pyrimidine-7-carboxamide] was 1700 pM; that for `Cc1cc(Nc2ncnc3sc4c(c23)CC[C@H](C(=O)N2CC(NC(=O)OC(C)(C)C)C2)C4)c(=O)n2c1C(=O)NC21CCCCC1` [Example 7, tert-Butyl [1-({(7S)-4-[(8′-methyl-1′,5′-dioxo-1′,5′-dihydro-2′H-spiro[cyclohexane-1,3′-imidazo[1,5-a]pyridin]-6′-yl)amino]-5,6,7,8-tetrahydro[1]benzothieno[2,3-d]pyrimidin-7-yl}carbonyl)azetidin-3-yl]carbamate] was 4200 pM.
As for `Cc1cc(Nc2ncnc3sc4c(c23)CC[C@H](C(=O)N2CCC2)C4)c(=O)n2c1C(=O)NC21CCCCC1` [Example 3, 6′-{[(7S)-7-(Azetidin-1-ylcarbonyl)-5,6,7,8-tetrahydro[1]benzothieno[2,3-d]pyrimidin-4-yl]amino}-8′-methyl-2′H-spiro[cyclohexane-1,3′-imidazo[1,5-a]pyridine]-1′,5′-dione], the IC50 was 300 pM.
Take `Cc1cc(Nc2ncnc3sc4c(c23)CC[C@H](C(=O)O)C4)c(=O)n2c1C(=O)NC21CCC(F)(F)CC1` [Example 42, (7S)-4-[(4,4-Difluoro-8′-methyl-1′,5′-dioxo-1′,5′-dihydro-2′H-spiro[cyclohexane-1,3′-imidazo[1,5-a]pyridin]-6′-yl)amino]-5,6,7,8-tetrahydro[1]benzothieno[2,3-d]pyrimidine-7-carboxylic acid]: the IC50 was determined as 24500 pM.
On to `CC1(C)NC(=O)c2c(Cl)cc(Nc3ncnc4sc5c(c34)CC[C@H](C(=O)N3CCC3)C5)c(=O)n21` [Example 112, 6-{[(7S)-7-(Azetidine-1-carbonyl)-5,6,7,8-tetrahydro[1]benzothieno[2,3-d]pyrimidin-4-yl]amino}-8-chloro-3,3-dimethyl-2,3-dihydroimidazo[1,5-a]pyridine-1,5-dione], for which the IC50 came to 200 pM.
Consider `Cc1cc(Nc2ncnc3sc4c(c23)CC[C@H](C(=O)O)C4)c(=O)n2c1C(=O)NC2(C)C` [Example 15, (7S)-4-[(3,3,8-Trimethyl-1,5-dioxo-1,2,3,5-tetrahydroimidazo[1,5-a]pyridin-6-yl)amino]-5,6,7,8-tetrahydro[1]benzothieno[2,3-d]pyrimidine-7-carboxylic acid], for which the IC50 is 15600 pM.
Regarding `Cc1cc(Nc2ncnc3sc4c(c23)CC[C@H](C(=O)N2CC(N(C)C)C2)C4)c(=O)n2c1C(=O)NC21CCCC1` [Example 40, 6′-{[(7S)-7-{[3-(Dimethylamino)azetidin-1-yl]carbonyl}-5,6,7,8-tetrahydro[1]benzothieno[2,3-d]pyrimidin-4-yl]amino}-8′-methyl-2′H-spiro[cyclopentane-1,3′-imidazo[1,5-a]pyridine]-1′,5′-dione], the IC50 was determined as 300 pM.
The result for `Cc1cc(Nc2ncnc3sc4c(c23)CC[C@H](C(=O)N2CCN(C)[C@H](C)C2)C4)c(=O)n2c1C(=O)NC21CCC(F)(F)CC1` [Example 57, 6′-{[(7S)-7-{[(3R)-3,4-Dimethylpiperazin-1-yl]carbonyl}-5,6,7,8-tetrahydro[1]benzothieno[2,3-d]pyrimidin-4-yl]amino}-4,4-difluoro-8′-methyl-2′H-spiro[cyclohexane-1,3′-imidazo[1,5-a]pyridine]-1′,5′-dione] reads 1400 pM; that for `Cc1cc(Nc2ncnc3sc4c(c23)CC[C@H](C(=O)N2CC[C@H](N(C)C)C2)C4)c(=O)n2c1C(=O)NC21CCC(F)(F)CC1` [Example 56, 6′-{[(7S)-7-{[(3S)-3-(Dimethylamino)pyrrolidin-1-yl]carbonyl}-5,6,7,8-tetrahydro[1]benzothieno[2,3-d]pyrimidin-4-yl]amino}-4,4-difluoro-8′-methyl-2′H-spiro[cyclohexane-1,3′-imidazo[1,5-a]pyridine]-1′,5′-dione], 2000 pM.
In the case of `C[C@@H]1COCCN1C(=O)[C@H]1CCc2c(sc3ncnc(Nc4cc(Cl)c5n(c4=O)C(C)(C)NC5=O)c23)C1` [Example 117, 8-chloro-3,3-dimethyl-6-({(7S)-7-[(3R)-3-methylmorpholine-4-carbonyl]-5,6,7,8-tetrahydro[1]benzothieno[2,3-d]pyrimidin-4-yl}amino)-2,3-dihydroimidazo[1,5-a]pyridine-1,5-dione], the 50% inhibitory concentration (IC50) is 400 pM.
For the compound `Cc1cc(Nc2ncnc3sc4c(c23)CC[C@H](C(=O)N2CC(C#N)C2)C4)c(=O)n2c1C(=O)NC21CCCCC1` [Example 5, 1-({(7S)-4-[(8′-Methyl-1′,5′-dioxo-1′,5′-dihydro-2′H-spiro[cyclohexane-1,3′-imidazo[1,5-a]pyridin]-6′-yl)amino]-5,6,7,8-tetrahydro[1]benzothieno[2,3-d]pyrimidin-7-yl}carbonyl)azetidine-3-carbonitrile], the IC50 stood at 1100 pM.
As for `Cc1cc(Nc2ncnc3sc4c(c23)CC[C@H](C(=O)N2C3CCC2CC(=O)C3)C4)c(=O)n2c1C(=O)NC21CCCCC1` [Example 13, 8′-Methyl-6′-({(7S)-7-[(3-oxo-8-azabicyclo[3.2.1]oct-8-yl)carbonyl]-5,6,7,8-tetrahydro[1]benzothieno[2,3-d]pyrimidin-4-yl}amino)-2′H-spiro[cyclohexane-1,3′-imidazo[1,5-a]pyridine]-1′,5′-dione], the IC50 stood at 400 pM.

These data come from patent US20190388425A1, “SUBSTITUTED IMIDAZOPYRIDINPYRIMIDINES” (Bayer Pharma Aktiengesellschaft, priority 2017, published 2019).
